IC50 data for 26 compounds are collected here from patent US11254651B2, “Histone methyltransferase inhibitors” (GLOBAL BLOOD THERAPEUTICS, INC., priority 2016, dated 2022).

Counter-ions that a name gives are not always drawn.

The target in the assay is T1, G9a (Homo sapiens, UniProt Q96KQ7).
T1 sequence (Q96KQ7 1-1210): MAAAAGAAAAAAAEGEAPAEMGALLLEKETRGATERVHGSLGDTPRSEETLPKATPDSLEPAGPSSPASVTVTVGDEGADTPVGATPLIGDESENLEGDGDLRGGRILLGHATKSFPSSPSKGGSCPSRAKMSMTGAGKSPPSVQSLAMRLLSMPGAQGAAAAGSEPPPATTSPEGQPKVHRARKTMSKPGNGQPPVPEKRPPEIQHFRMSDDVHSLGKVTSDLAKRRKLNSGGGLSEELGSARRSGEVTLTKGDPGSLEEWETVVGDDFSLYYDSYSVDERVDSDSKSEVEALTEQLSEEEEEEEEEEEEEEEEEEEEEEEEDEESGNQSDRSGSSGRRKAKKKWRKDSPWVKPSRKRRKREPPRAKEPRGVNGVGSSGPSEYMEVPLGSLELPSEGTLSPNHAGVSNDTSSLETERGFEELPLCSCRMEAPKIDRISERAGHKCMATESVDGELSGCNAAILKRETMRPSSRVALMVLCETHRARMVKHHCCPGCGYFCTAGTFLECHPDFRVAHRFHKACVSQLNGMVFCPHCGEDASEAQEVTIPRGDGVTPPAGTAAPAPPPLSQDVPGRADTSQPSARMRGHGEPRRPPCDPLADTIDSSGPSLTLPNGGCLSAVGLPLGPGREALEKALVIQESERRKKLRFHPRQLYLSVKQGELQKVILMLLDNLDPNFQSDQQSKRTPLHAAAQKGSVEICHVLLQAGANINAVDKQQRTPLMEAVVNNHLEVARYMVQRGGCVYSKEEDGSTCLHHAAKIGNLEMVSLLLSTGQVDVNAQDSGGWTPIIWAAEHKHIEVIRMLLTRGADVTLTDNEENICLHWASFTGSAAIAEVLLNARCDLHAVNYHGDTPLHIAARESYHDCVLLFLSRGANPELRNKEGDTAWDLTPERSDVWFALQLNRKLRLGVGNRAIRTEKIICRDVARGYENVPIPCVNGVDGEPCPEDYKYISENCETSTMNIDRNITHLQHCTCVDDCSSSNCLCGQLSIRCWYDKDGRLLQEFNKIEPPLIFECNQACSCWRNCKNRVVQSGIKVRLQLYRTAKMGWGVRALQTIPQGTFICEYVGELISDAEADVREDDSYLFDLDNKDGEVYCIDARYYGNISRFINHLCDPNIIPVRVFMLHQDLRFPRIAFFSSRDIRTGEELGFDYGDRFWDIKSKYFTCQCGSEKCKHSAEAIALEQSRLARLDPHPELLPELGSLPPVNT
The assay is described as follows: G9a AlphaLISA enzymatic activity assay. It counts as biochemical. As to conditions: 0.15 nM G9a, 15 uM S-adenosyl-methionine, 100 nM biotinylated histone 3 peptide (1-21), 1 hour room temperature. The source says:
The G9a AlphaLISA assay was used to detect the methyl modifications of a biotinylated histone H3 peptide by the compounds. These modifications are done by the histone methyl transferase activity of the G9a enzyme. The assay consists of reading a chemiluminescent signal at 615 nm; this signal is generated by a laser excitation at 680 nm that transfers a reactive singlet oxygen between the donor beads and acceptor beads. Donor beads are streptavidin conjugated and bind to the biotin on the peptide. Acceptor beads are conjugated with an antibody that recognizes the specific G9a methyl mark on the peptide. If there is a methyl mark on the peptide, the acceptor beads will bind to the peptide. Upon binding, the acceptor beads will be in close proximity (<200 nm) of the donor beads and when the donor beads are excited, the transfer of the oxygen can occur and a strong signal will be generated. If there is no methyl mark, the interaction between beads will not occur and signal will be at background levels.
For the assay, the following buffer was used to set up reactions: 50 mM Tris-HCl pH9, 50 mM NaCl, 0.01% Tween-20 and 1 mM DTT (added fresh prior to starting the reactions). The assay is set up by adding a final concentration of 0.15 nM G9a, 15 uM S-adenosyl-methionine and, 100 nM biotinylated histone 3 peptide (1-21). The reaction is incubated at room temperature for 1 hour, and subsequently quenched by the addition of the acceptor beads (anti-H3k9me2 AlphaLISA acceptor beads, PerkinElmer #AL117) at a final concentration of 20 ug/mL. The acceptor beads are incubated for 1 hour. After 1 hour, the donor beads are added at a final concentration of 20 ug/mL (Alpha Streptavidin donor beads, PerkinElmer #6760002). Donor beads are incubated for 0.5 hours. Both donor and acceptor beads are resuspended in AlphaLISA 5X Epigenetics Buffer 1 Kit (PerkinElmer #AL008) prior to addition to the reaction. All manipulations and incubations with the donor and acceptor beads are done in subdued light. Signal is detected in an EnVision plate reader in Alpha mode (see ACS Med Chem Lett. 2014 Jan. 2; 5(2):205-9. doi: 10.1021/m1400496h. eCollection 2014. Discovery and development of potent and selective inhibitors of histone methyltransferase g9a.)
Percent inhibition was calculated for each compound dilution and the concentration that produced 50% inhibition was calculated. This value is presented as the IC50.
(Alpha assays give light when donor and acceptor beads are brought close together.)
Usually IC50 stands for the concentration at which inhibition is half-maximal. Compound “2-ethoxy-N-methyl-3-[3-(pyrrolidin-1-yl)propoxy]acridin-9-amine formate and 3-ethoxy-N-methyl-2-[3-(pyrrolidin-1-yl)propoxy]acridin-9-amine formate (1:1) [Entry 118]” yielded an IC50 of 75.5 nM. The same measure for `CNc1c2ccccc2nc2cc(OCCCN3CCCC3)c(OC)cc12` [Entry 1, 2-methoxy-N-methyl-3-[3-(pyrrolidin-1-yl)propoxy]acridin-9-amine]: 1.3 nM; for `COc1cc2c(NC3CCOCC3)c3ccccc3nc2cc1OCCCN1CCCC1` [Entry 3, 2-methoxy-N-(oxan-4-yl)-3-[3-(pyrrolidin-1-yl)propoxy]-acridin-9-amine trifluoroacetate]: 4.4 nM. The same measure for `COc1cc2c(NC3CCN(C)CC3)c3ccccc3nc2cc1OCCCN1CCCC1` [Entry 4, 2-methoxy-N-(1-methylpiperidin-4-yl)-3-[3-(pyrrolidin-1-yl)propoxy]acridin-9-amine trifluoroacetate]: 1.1 nM; for `COc1cc2c(O)c3ccccc3nc2cc1OCCCN1CCCC1` [Entry 6, 2-methoxy-3-[3-(pyrrolidin-1-yl)propoxy]acridin-9-ol formate]: 42 nM. The figure for `CCOc1c2ccccc2nc2cc(OCCCN3CCCC3)c(OC)cc12` [Entry 7, 9-ethoxy-2-methoxy-3-[3-(pyrrolidin-1-yl)propoxy]acridine formate] is 1400 nM; for `CNc1c2ccccc2nc2cc(OCCCN3CCCC3)c(Cl)cc12` [Entry 9, 2-chloro-N-methyl-3-[3-(pyrrolidin-1-yl)propoxy]acridin-9-amine formate] it is 26.1 nM. `CNc1c2ccccc2nc2cc(OCCCN3CCCC3)ccc12` [Entry 10, N-methyl-3-[3-(pyrrolidin-1-yl)propoxy]acridin-9-amine formate] returned an IC50 of 56.7 nM. `CNc1c2ccccc2nc2cc(OCCCN3CCCC3)c(C)cc12` [Entry 11, N,2-dimethyl-3-[3-(pyrrolidin-1-yl)propoxy]acridin-9-amine formate] gave an IC50 of 1230 nM. The figure for `CCN(CC)CCCOc1cc2nc3ccccc3c(NC)c2cc1OC` [Entry 14, 3-[3-(diethylamino)propoxy]-2-methoxy-N-methylacridin-9-amine trifluoroacetate] is 76 nM. Consider `COc1cc2c(NC3CCN(C(C)C)CC3)c3c(nc2cc1OCCCN1CCCC1)CCCC3` [Entry 16, 7-methoxy-N-[1-(propan-2-yl)piperidin-4-yl]-6-[3-(pyrrolidin-1-yl)propoxy]-1,2,3,4-tetrahydroacridin-9-amine trifluoroacetate], for which inhibition was half-maximal at 11 nM (IC50). The same measure for `COc1cc2cc3c(nc2cc1OCCCN1CCCC1)CCCC3` [Entry 17, 7-methoxy-6-[3-(pyrrolidin-1-yl)propoxy]-1,2,3,4-tetrahydroacridine formate]: 510 nM; for `COc1cc2c(NC(C)C)c3c(nc2cc1OCCCN1CCCC1)CCC3` [Entry 19, 7-methoxy-N-(propan-2-yl)-6-[3-(pyrrolidin-1-yl)propoxy]-1H,2H,3H-cyclopenta[b]quinolin-9-amine formate]: 10 nM; for `CNc1c2c(nc3cc(OCCCN4CCC(F)C4)c(OC)cc13)CCC2` (centres unmarked) [Entry 29, 6-[3-(3-fluoropyrrolidin-1-yl)propoxy]-7-methoxy-N-methyl-1H,2H,3H-cyclopenta[b]quinolin-9-amine]: 250 nM. Take `COc1cc2c(NC3CC3)c3c(nc2cc1OCCCN1CCCC1)CCC3` [Entry 31, N-cyclopropyl-7-methoxy-6-[3-(pyrrolidin-1-yl)propoxy]-1H,2H,3H-cyclopenta[b]quinolin-9-amine trifluoroacetate]: the IC50 was found to be 17.5 nM. `COc1cc2c(NCC3CC3)c3c(nc2cc1OCCCN1CCCC1)CCC3` [Entry 32, N-(cyclopropylmethyl)-7-methoxy-6-[3-(pyrrolidin-1-yl)propoxy]-1H,2H,3H-cyclopenta[b]quinolin-9-amine formate] registered a half-inhibitory concentration (IC50) of 14 nM. The figure for `COc1cc2c(NCCO)c3c(nc2cc1OCCCN1CCCC1)CCC3` [Entry 34, 2-({7-methoxy-6-[3-(pyrrolidin-1-yl)propoxy]-1H,2H,3H-cyclopenta[b]quinolin-9-yl}amino)ethan-1-ol formate] is 7.6 nM; for `COCCNc1c2c(nc3cc(OCCCN4CCCC4)c(OC)cc13)CCC2` [Entry 38, 7-methoxy-N-(2-methoxyethyl)-6-[3-(pyrrolidin-1-yl)propoxy]-1H,2H,3H-cyclopenta[b]quinolin-9-amine formate] it is 16 nM. The figure for `COc1cc2c(NCC3COC3)c3c(nc2cc1OCCCN1CCCC1)CCC3` [Entry 39, 7-methoxy-N-[(oxetan-3-yl)methyl]-6-[3-(pyrrolidin-1-yl)propoxy]-1H,2H,3H-cyclopenta[b]quinolin-9-amine formate] is 20 nM; for `COc1cc2c(Nc3ccccn3)c3c(nc2cc1OCCCN1CCCC1)CCC3` [Entry 40, N-{7-methoxy-6-[3-(pyrrolidin-1-yl)propoxy]-1H,2H,3H-cyclopenta[b]quinolin-9-yl}pyridin-2-amine formate] it is 150 nM; for `COc1cc2c(NCC3(C)CC3)c3c(nc2cc1OCCCN1CCCC1)CCC3` [Entry 44, 7-methoxy-N-[(1-methylcyclopropyl)methyl]-6-[3-(pyrrolidin-1-yl)propoxy]-1H,2H,3H-cyclopenta[b]quinolin-9-amine formate] it is 19 nM. The figure for `COc1cc2c(NCc3ccccc3)c3c(nc2cc1OCCCN1CCCC1)CCC3` [Entry 46, N-benzyl-7-methoxy-6-[3-(pyrrolidin-1-yl)propoxy]-1H,2H,3H-cyclopenta[b]quinolin-9-amine formate] is 36 nM; for `COc1cc2c(NCC(F)(F)F)c3c(nc2cc1OCCCN1CCCC1)CCC3` [Entry 50, 7-methoxy-6-[3-(pyrrolidin-1-yl)propoxy]-N-(2,2,2-trifluoroethyl)-1H,2H,3H-cyclopenta[b]quinolin-9-amine trifluoroacetate] it is 26 nM; for `COc1cc2c(NCC3CC3)c3c(nc2cc1OCC1CCN(C)C1)CCC3` (centres unmarked) [Entry 52, N-(cyclopropylmethyl)-7-methoxy-6-[(1-methylpyrrolidin-3-yl)methoxy]-1H,2H,3H-cyclopenta[b]quinolin-9-amine formate] it is 65 nM. Regarding `COc1cc2c(NC3CC(C)OC(C)C3)c3c(nc2cc1OCCCN1CCCC1)CCC3` (centres unmarked) [Entry 53, N-(2,6-dimethyloxan-4-yl)-7-methoxy-6-[3-(pyrrolidin-1-yl)propoxy]-1H,2H,3H-cyclopenta[b]quinolin-9-amine formate], the IC50 came to 21.6 nM. The figure for `COc1cc2c(NCc3ccccn3)c3c(nc2cc1OCCCN1CCCC1)CCC3` [Entry 54, 7-methoxy-N-[pyridin-2-yl)methyl]-6-[3-(pyrrolidin-1-yl)propoxy]-1H,2H,3H-cyclopenta[b]quinolin-9-amine formate] is 60.1 nM.
